Source: patent US11492342B2, “Crystalline forms of piperazine-1,4-diylbis((6-(1H-benzo[d]imidazo-2-yl)pyridin-2yl)methanone)” (Landos Biopharma, Inc., priority 2020, dated 2022)
Read-outs that look alike come from different tables or passages of the source. One block for each compound: values may come before it.

Legend:
[1] = test system: CD25/STAT5 signaling and late-stage glycolysis; settings: murine cells; cited from earlier work
[2] = test system: TNFα production in the gastrointestinal tract, fecal calprotectin; settings: mice; cited from earlier work
[3] = test system: CD25/STAT5 signaling and late-stage glycolysis; settings: human cells; cited from earlier work
[4] = cited from earlier work
[5] = Solid form change on drying, followed by XRPD; assay type: physicochemical
Description: XRPD analysis was carried out, scanning the samples between 3 and 35° 2θ. The material was gently ground to release any agglomerates and loaded onto a multi-well plate with polymer film to support the sample. The multi-well plate was then placed into the diffractometer and analyzed using Cu K radiation (α1λ=1.54060 Å; α2=1.54443 Å; β=1.39225 Å; α1:α2 ratio=0.5) running in transmission mode (step size 0.0130° 2θ, step time 18.87 s) using 40 kV/40 mA generator settings. Data were visualized and analyzed.

[6] = Pharmacokinetic analysis: oral dosing to mice, BT-11 in plasma and colonic tissue by LC/MS/MS; settings: for Colon BT-11 Concentration / Plasma BT-11 Cmax: oral; for Colon BT-11 Concentration: colon 4 hours post-dose
Description: BT-11 Form 0, Form 1, and Form 2 were orally dosed to male and female mice (n=4) to provide 8 mg/kg. Plasma was collected at 1, 2, and 4 hours post-dose. At 4 hours post-dose, colons were excised and washed in PBS. Tissues were then homogenized by Fast-Prep24 instrument. Plasma and tissue homogenate were prepared by acetonitrile-based liquid-liquid extraction. BT-11 concentrations were determined by LC/MS/MS analysis using a linear calibration curve.

[7] = Particle size distribution (PSD) analysis; assay type: physicochemical
Description: Particle size distribution analysis was carried out using a particle size analyzer with a dispersion cell. Approximately 50 mg of sample was weighed into a 20 mL scintillation vial and 10 mL of dispersant was added. The sample was sonicated for 30 seconds, aspirated with a glass pipette, and then added to the dispersion unit. The sample was circulated for 30 seconds to allow the dispersion to stabilize.

[8] = Dynamic vapor sorption (DVS); assay type: physicochemical; settings: for re-crystallization or form change during the DVS experiment: DVS kinetic plot
Description: Approximately, 10 mg of sample was placed into a mesh vapor sorption balance pan and loaded into a DVS-1/DVS Intrinsic/DVS Advantage dynamic vapor sorption balance by Surface Measurement Systems. The sample was subjected to a ramping profile from 40-90% relative humidity (RH) at 10% increments, maintaining the sample at each step until a stable weight had been achieved (dm/dt 0.004%, minimum step length 30 min, maximum step length 500 min) at 25° C. After completion of the sorption cycle, the sample was dried using the same procedure to 0% RH and then a second sorption cycle back to 40% RH. Two cycles were performed. The weight change during the sorption/desorption cycles were plotted, allowing for the hygroscopic nature of the sample to be determined. XRPD analysis was then carried out on any solid retained.

[9] = mice, 8 mg/kg, plasma collected at 1, 2 and 4 hours post-dose
[10] = DVS, 25° C., listed as BT-11 Form 2
[11] = DVS, 25° C., listed as BT-11 Form 1
[12] = DVS, 25° C., listed as BT-11 Form 3

Structure (SMILES): O=C(c1cccc(-c2nc3ccccc3[nH]2)n1)N1CCN(C(=O)c2cccc(-c3nc4ccccc4[nH]3)n2)CC1 [piperazine-1,4-diylbis((6-(1H-benzo[d]imidazo-2-yl)pyridine-2-yl)methanone)]
CD25/STAT5 signaling and late-stage glycolysis [1]: induces changes | fecal calprotectin levels [2]: reduces | local TNFα production in the gastrointestinal tract [2]: reduces | CD25/STAT5 signaling and late-stage glycolysis [3]: induces changes | systemic absorption when orally administered [4]: poorly systemically absorbed

form change post-drying [5]: convert to Form 2
Structure (SMILES): Cl.Cl.O=C(c1cccc(-c2nc3ccccc3[nH]2)n1)N1CCN(C(=O)c2cccc(-c3nc4ccccc4[nH]3)n2)CC1 [Form 7, piperazine-1,4-diylbis((6-(1H-benzo[d]imidazo-2-yl)pyridine-2-yl)methanone)]

Colon BT-11 Concentration ([6]; mice, 8 mg/kg): 4470 ng/g | Plasma BT-11 Cmax [6, 9]: 41 ng/mL | d10 ([7]; listed as BT-11 Form 2): 18.2 μm | d50 ([7]; listed as BT-11 Form 2): 31.9 μm | d90 ([7]; listed as BT-11 Form 2): 83.9 μm | mass uptake on 2nd cycle ([8]; DVS, 25° C., 2nd cycle): 0.23% | hygroscopic nature [8, 10]: slightly hygroscopic | total mass increase up to 90% RH [8, 10]: 0.32%
Structure (SMILES): Cl.Cl.O=C(c1cccc(-c2nc3ccccc3[nH]2)n1)N1CCN(C(=O)c2cccc(-c3nc4ccccc4[nH]3)n2)CC1 [Form 2, piperazine-1,4-diylbis((6-(1H-benzo[d]imidazo-2-yl)pyridine-2-yl)methanone)]
confinement to the gastrointestinal tract after oral administration ([6]; mouse, in vivo, po): increased confinement to the gastrointestinal tract | re-crystallization or form change during the DVS experiment ([8]; listed as BT-11 Form 2): no evidence of re-crystallization or form change

Cmax ([6]; both, mouse, plasma, po, 8 mg/kg, Plasma BT-11 Cmax, mice, plasma collected at 1, 2 and 4 hours post-dose): 186 ng/mL | Colon BT-11 Concentration ([6]; mice, 8 mg/kg): 1280 ng/g | d10 [7]: 0.2 μm | d50 [7]: 6.3 μm | d90 [7]: 19.8 μm
Structure (SMILES): O=C(c1cccc(-c2nc3ccccc3[nH]2)n1)N1CCN(C(=O)c2cccc(-c3nc4ccccc4[nH]3)n2)CC1 [Form 0, piperazine-1,4-diylbis((6-(1H-benzo[d]imidazo-2-yl)pyridine-2-yl)methanone)]

Colon BT-11 Concentration ([6]; mice, 8 mg/kg): 3000 ng/g | Plasma BT-11 Cmax [6, 9]: 177 ng/mL | d10 ([7]; listed as BT-11 Form 1): 0.1 μm | d50 ([7]; listed as BT-11 Form 1): 0.5 μm | d90 ([7]; listed as BT-11 Form 1): 40.8 μm | hygroscopic nature [8, 11]: hygroscopic | total mass increase up to 90% RH [8, 11]: 24% | total mass lost below 20% RH [8, 11]: 6.0%
Structure (SMILES): Cl.Cl.O=C(c1cccc(-c2nc3ccccc3[nH]2)n1)N1CCN(C(=O)c2cccc(-c3nc4ccccc4[nH]3)n2)CC1 [Form 1, piperazine-1,4-diylbis((6-(1H-benzo[d]imidazo-2-yl)pyridine-2-yl)methanone)]
re-crystallization or form change during the DVS experiment ([8]; listed as BT-11 Form 1): no evidence of re-crystallization or form change

total moisture uptake due to surface moisture ([8]; DVS, 25° C.): 2.8% | total mass increase up to 90% RH [8, 12]: 7.8% | total mass lost below 20% RH [8, 12]: 5.0%
Structure (SMILES): Cl.Cl.O=C(c1cccc(-c2nc3ccccc3[nH]2)n1)N1CCN(C(=O)c2cccc(-c3nc4ccccc4[nH]3)n2)CC1 [Form 3, piperazine-1,4-diylbis((6-(1H-benzo[d]imidazo-2-yl)pyridine-2-yl)methanone)]
re-crystallization or form change during the DVS experiment ([8]; listed as BT-11 Form 3): No evidence of re-crystallization or form change
